Source: ChEMBL document CHEMBL5500426, “Directly Suppressing MYC Function with Novel Alkynyl-Substituted Phenylpyrazole Derivatives that Induce Protein Degradation and Perturb MYC/MAX Interaction” (J Med Chem, 2024)
Activity calls are given as the source filed them. The calls are words filed in the database; no cut-off is given here.

Legend:
[1] = system: PC-3; test: Antiproliferative activity against human PC-3 cells assessed as inhibition of cell growth incubated for 72 hrs by MTT assay; assay type: functional, cell-based; conditions: PC-3, 72 h
[2] = Cytotoxicity against human GES1 cells assessed as inhibition of cell growth incubated for 72 hrs by MTT assay; assay type: toxicity, cell-based
[3] = system: MDA-MB-468; test: Antiproliferative activity against human MDA-MB-468 cells assessed as inhibition of cell growth incubated for 72 hrs by MTT assay; assay type: functional, cell-based; conditions: MDA-MB-468, 72 h
[4] = system: SK-N-BE(2); test: Antiproliferative activity against human SK-N-BE(2) cells assessed as inhibition of cell growth incubated for 72 hrs by MTT assay; assay type: functional, cell-based; conditions: SKNBE2, 72 h
[5] = system: HCT-116; test: Antiproliferative activity against human HCT-116 cells assessed as inhibition of cell growth incubated for 72 hrs by MTT assay; assay type: functional, cell-based; conditions: HCT-116, 72 h
[6] = system: SGC-7901; test: Antiproliferative activity against human SGC-7901 cells assessed as inhibition of cell growth incubated for 72 hrs by MTT assay; assay type: functional, cell-based; conditions: SGC-7901, 72 h
[7] = system: SK-OV-3; test: Antiproliferative activity against human SK-OV-3 cells assessed as inhibition of cell growth incubated for 72 hrs by MTT assay; assay type: functional, cell-based; conditions: SK-OV-3, 72 h
[8] = system: HL-60; test: Antiproliferative activity against human HL-60 cells assessed as inhibition of cell growth incubated for 72 hrs by MTT assay; assay type: functional, cell-based; conditions: HL-60, 72 h
[9] = Half life in Sprague-Dawley rat at 2 mg/kg,iv administration by LC-MS/MS analysis; assay type: ADME, organism-based; conditions: in vivo
[10] = Half life in Sprague-Dawley rat at 10 mg/kg,ip administration by LC-MS/MS analysis; assay type: ADME, organism-based; conditions: in vivo
[11] = AUC (0 to t) in Sprague-Dawley rat at 2 mg/kg,iv administration by LC-MS/MS analysis; assay type: ADME, organism-based; conditions: in vivo
[12] = AUC (0 to t) in Sprague-Dawley rat at 10 mg/kg,ip administration by LC-MS/MS analysis; assay type: ADME, organism-based; conditions: in vivo
[13] = Volume of distribution at steady state in Sprague-Dawley rat at 2 mg/kg,iv administration by LC-MS/MS analysis; assay type: ADME, organism-based; conditions: in vivo, read-out: Vdss
[14] = Clearance in Sprague-Dawley rat at 10 mg/kg,ip administration by LC-MS/MS analysis; assay type: ADME, organism-based; conditions: in vivo
[15] = Bioavailability in Sprague-Dawley rat at 2 mg/kg,iv administration by LC-MS/MS analysis; assay type: ADME, organism-based; conditions: in vivo
[16] = target: Myc proto-oncogene protein (Homo sapiens) (UniProt P01106); test: Inhibition of MYC in human PC-3 cells assessed as downregulation of MYC expression incubated for 24 hrs by Western blotting analysis; assay type: cell-based
[17] = target: Myc proto-oncogene protein (Homo sapiens) (UniProt P01106); test: Inhibition of MYC in human PC-3 cells assessed as downregulation of MYC expression at 10 uM incubated for 24 hrs in presence of proteasome inhibitor MG132 by Western blotting analysis; assay type: cell-based
[18] = target: T1, c-Myc/c-Max (Homo sapiens) (UniProt P01106+P61244); test: Inhibition of MYC/MAX protein-protein interaction in human PC-3 cells at 1 uM incubated for 30 mins; assay type: cell-based
[19] = target: Myc proto-oncogene protein (Homo sapiens) (UniProt P01106); test: Binding affinity to MYC in human PC-3 cells assessed as decrease in melting temperature at 10 uM with 37 to 52 degreeC incubated for 1 hr by CETSA based Western blotting analysis; assay type: cell-based
[20] = target: T1, c-Myc/c-Max (Homo sapiens); test: Inhibition of MYC/MAX protein-protein interaction in human PC-3 cells at 10 uM incubated for 1 hr by Co-immunoprecipitation based immunoblotting analysis; assay type: cell-based
[21] = system: PC-3; test: Antitumor activity against human PC-3 cells xenografted in BALB/C mouse assessed as reduction in tumor volume at ip administrated daily for 21 consecutive days; assay type: functional, organism-based
[22] = system: PC-3; test: Antitumor activity against human PC-3 cells xenografted in BALB/C mouse assessed as tumor growth inhibition at 50 mg/kg,ip administrated daily for 21 consecutive days relative to control; assay type: functional; conditions: read-out: TGI
[23] = system: PC-3; test: Antitumor activity against human PC-3 cells xenografted in BALB/C mouse assessed as tumor growth inhibition at 100 mg/kg,ip administrated daily for 21 consecutive days relative to control; assay type: functional; conditions: read-out: TGI
[24] = Toxicity in BALB/C mouse xenografted with human PC-3 cells assessed as body weight loss at 50 to 100 mg/kg,ip administrated daily for 21 consecutive days; assay type: organism-based; conditions: in vivo, dose 50-100 mg/kg
[25] = Toxicity in BALB/C mouse xenografted with human PC-3 cells assessed as histopathological change in heart at 50 to 100 mg/kg,ip administrated daily for 21 consecutive days by hematoxylin and eosin staining based microscopic analysis; assay type: organism-based; conditions: in vivo, dose 50-100 mg/kg
[26] = Toxicity in BALB/C mouse xenografted with human PC-3 cells assessed as histopathological change in spleen at 50 to 100 mg/kg,ip administrated daily for 21 consecutive days by hematoxylin and eosin staining based microscopic analysis; assay type: organism-based; conditions: in vivo, dose 50-100 mg/kg
[27] = Toxicity in BALB/C mouse xenografted with human PC-3 cells assessed as histopathological change in kidney at 50 to 100 mg/kg,ip administrated daily for 21 consecutive days by hematoxylin and eosin staining based microscopic analysis; assay type: organism-based; conditions: in vivo, dose 50-100 mg/kg
[28] = system: Myc-CaP; test: Antitumor activity against mouse Myc-CaP cells implanted in FVB mouse assessed as reduction in tumor weight at ip administrated daily for 14 consecutive days; assay type: functional, organism-based
[29] = system: Myc-CaP; test: Antitumor activity against mouse Myc-CaP cells implanted in FVB mouse assessed as tumor growth inhibition at 10 mg/kg,ip administrated daily for 14 consecutive days relative to control; assay type: functional; conditions: read-out: TGI
[30] = system: Myc-CaP; test: Antitumor activity against mouse Myc-CaP cells implanted in FVB mouse assessed as tumor growth inhibition at 30 mg/kg,ip administrated daily for 14 consecutive days relative to control; assay type: functional; conditions: read-out: TGI
[31] = system: Myc-CaP; test: Antitumor activity against mouse Myc-CaP cells implanted in FVB mouse assessed as tumor growth inhibition at 50 mg/kg,ip administrated daily for 14 consecutive days relative to control; assay type: functional; conditions: read-out: TGI
[32] = Toxicity in FVB mouse implanted with mouse Myc-CaP cells assessed as body weight loss at 10 to 50 mg/kg,ip administrated daily for 14 consecutive days; assay type: organism-based; conditions: in vivo, dose 10-50 mg/kg
[33] = Toxicity in FVB mouse implanted with mouse Myc-CaP cells assessed as histopathological change in heart at 10 to 50 mg/kg,ip administrated daily for 14 consecutive days by hematoxylin and eosin staining based microscopic analysis; assay type: organism-based; conditions: in vivo, dose 10-50 mg/kg
[34] = Toxicity in FVB mouse implanted with mouse Myc-CaP cells assessed as histopathological change in liver at 10 to 50 mg/kg,ip administrated daily for 14 consecutive days by hematoxylin and eosin staining based microscopic analysis; assay type: organism-based; conditions: in vivo, dose 10-50 mg/kg
[35] = Toxicity in FVB mouse implanted with mouse Myc-CaP cells assessed as histopathological change in spleen at 10 to 50 mg/kg,ip administrated daily for 14 consecutive days by hematoxylin and eosin staining based microscopic analysis; assay type: organism-based; conditions: in vivo, dose 10-50 mg/kg
[36] = Toxicity in FVB mouse implanted with mouse Myc-CaP cells assessed as histopathological change in lung at 10 to 50 mg/kg,ip administrated daily for 14 consecutive days by hematoxylin and eosin staining based microscopic analysis; assay type: organism-based; conditions: in vivo, dose 10-50 mg/kg
[37] = Toxicity in FVB mouse implanted with mouse Myc-CaP cells assessed as histopathological change in kidney at 10 to 50 mg/kg,ip administrated daily for 14 consecutive days by hematoxylin and eosin staining based microscopic analysis; assay type: organism-based; conditions: in vivo, dose 10-50 mg/kg

Myc proto-oncogene protein (Homo sapiens), sequence (P01106 whole entry): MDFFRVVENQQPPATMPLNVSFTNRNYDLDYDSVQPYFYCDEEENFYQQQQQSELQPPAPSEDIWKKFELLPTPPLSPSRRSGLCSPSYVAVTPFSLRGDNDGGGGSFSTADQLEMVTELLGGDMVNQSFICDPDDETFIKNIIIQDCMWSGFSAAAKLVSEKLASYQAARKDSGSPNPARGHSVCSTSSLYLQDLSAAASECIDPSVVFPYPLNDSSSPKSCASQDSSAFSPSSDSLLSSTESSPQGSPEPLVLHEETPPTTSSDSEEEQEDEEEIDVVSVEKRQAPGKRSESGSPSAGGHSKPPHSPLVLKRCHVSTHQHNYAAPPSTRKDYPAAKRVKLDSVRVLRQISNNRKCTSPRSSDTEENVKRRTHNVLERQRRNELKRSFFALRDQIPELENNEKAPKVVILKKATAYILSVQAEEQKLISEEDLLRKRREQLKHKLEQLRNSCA
T1 sequence (P01106 whole entry): as above
T1 sequence (P61244 2-160 partner limits assumed): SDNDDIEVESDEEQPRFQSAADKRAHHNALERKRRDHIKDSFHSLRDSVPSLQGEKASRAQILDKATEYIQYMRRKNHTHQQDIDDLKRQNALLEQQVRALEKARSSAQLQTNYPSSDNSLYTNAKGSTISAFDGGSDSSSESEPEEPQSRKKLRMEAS

IC50 [1]: 1270 nM | IC50 [3]: 4.32 µM | IC50 [4]: 1250 nM | IC50 [5]: 1010 nM | IC50 [6]: 1960 nM | IC50 [7]: 1250 nM | IC50 [8]: 1890 nM | half-life [9]: 193 min | half-life [10]: 358 min | AUC(0-t) [11]: 1400 ng·h/mL | AUC(0-t) [12]: 2220 ng·h/mL | Vd [13]: 6.41 L/kg | CL/F [14]: 74 mL/min/kg | bioavailability [15]: 31.7% | inhibition [16]: Dose-Dependent Effect | inhibition [17]: inactive | inhibition [18]: Active | Activity [19]: Active | inhibition [20]: Active
SMILES: Oc1c(-c2cc(C(F)(F)F)n[nH]2)ccc(C#CCCN2CCOCC2)c1-c1ccc(Cl)c(C(F)(F)F)c1
IC50 at 72 h [2]: > 100 µM | Activity [21]: Dose-Dependent Effect | inhibition in vivo at 50 mg/kg [22]: 33% | inhibition in vivo at 100 mg/kg [23]: 79% | Activity [24]: Toxic | Activity [25]: Non-Toxic | Activity [26]: Non-Toxic | Activity [27]: Non-Toxic | Activity [28]: Dose-Dependent Effect | inhibition in vivo at 10 mg/kg [29]: 37% | inhibition in vivo at 30 mg/kg [30]: 67% | inhibition in vivo at 50 mg/kg [31]: 85% | Activity [32]: Non-Toxic | Activity [33]: Non-Toxic | Activity [34]: Non-Toxic | Activity [35]: Non-Toxic | Activity [36]: Non-Toxic | Activity [37]: Non-Toxic
